Measurements as given in patent publication US20130130299A1, “ELECT[…] CYTOMETRY” (University of Utah Research Foundation, priority 2009, published 2013).

Tested on: PC12 cells
Test: Microchip amperometric detection of electrically evoked exocytotic catecholamine release
Format: cell-based, rat
Protocol: Cells were cultured in suspension in 75 mm^2 tissue culture flasks with RPMI 1640 (Invitrogen, Carlsbad, Calif.) cell culture media supplemented with 15% horse serum (Invitrogen), 2.5% fetal bovine serum (Invitrogen) and 0.02 mg/ml gentamicin (Invitrogen). Flasks were kept in an incubator at 37° C. with 5% CO2. Media was refreshed every 3-4 days, retaining 10% of the existing media each time. Cells were mechanically agitated to break up cell clusters through repeated washing through a pipettor tip. Additional separation was achieved through weekly, overnight treatment of the cells in 1 mM ethylene glycol tetraacetic acid (EGTA, Sigma-Aldrich, St. Louis, Mo.) with subsequent washing and trituration.
Prior to use, cells were transferred to Locke's buffer consisting of 154 mM NaCl, 5.6 mM KCl, 3.6 mM NaHCO3, 2.3 mM CaCl2, 5.6 mM glucose, and 5 mM Hepes (pH 7.4). An aliquot of the solution was immediately transferred to the MEMS device via manual pipette aspiration. […]
Neurotransmitter release from the PC12 cells was measured using a three electrode arrangement with a Au WE (FIGS. 3A and 3B, WE), a Au counter electrode (FIGS. 3A and 3B, CE) and silver/silver chloride (Ag/AgCl) reference electrode (RE) with all controlled by a NPI VA-10 potentiostat (National Precision Instruments (NPI), Tamm, Germany). […]

| Structure (SMILES) | exocytosis activity after exposure to the actin-disrupting agent (population of PC12 cells exposed to cytochalasin-D, data not shown) | cube root of quantal yield (PC12 cells differentiated with 5 μM dexamethasone, n=209 cells, k=25,463 spikes, WE +700 mV vs Ag/AgCl) |
| --- | --- | --- |
| C=C1[C@@H](C)[C@H]2[C@H](Cc3ccccc3)NC(=O)[C@]23[C@H](OC(C)=O)/C=C/[C@@](C)(O)C(=O)[C@@H](C)C/C=C/[C@H]3[C@@H]1O [cytochalasin-D] | did not block |  |
| C[C@@H]1C[C@H]2[C@@H]3CCC4=CC(=O)C=C[C@]4(C)[C@@]3(F)[C@@H](O)C[C@]2(C)[C@@]1(O)C(=O)CO [dexamethasone] |  | 6.6±0.08 zmol^1/3 |
